Patent US20100178652A1, “Materials and Methods for the Detection, Prevention and Treatment of Autoimmune Disease” (priority 2007, published 2010)

Assays:
[1] = system: STAT5 phosphorylation; details: mature monocytes and macrophages; blocking GM-CSF signaling; ref [20]; cited from earlier work
[2] = system: STAT5 phosphorylation; assay: Persistence of STAT5 phosphorylation in mature myeloid cells when GM-CSF signaling is blocked; format: cell-based, NOD mouse; details: NOD mature myeloid cells, once activated; inhibition of GM-CSF signaling
Text: Flow cytometric analysis of fluorescently-conjugated antibody surface and intracellular binding will be used to phenotypically identify myeloid cells and quantify the level of STAT5 tyrosine phosphorylation in cells ex vivo and after in vitro stimulation. Cells will be first labeled with anti-CD11b and anti-IgM antibody conjugates to identify monocytes and macrophages (CD11b+/IgM−) in the sample, then fixed with 2% (v/v Cf) formaldehyde and permeabilized using 0.5% saponin in a high protein, isotonic buffer. Intracellular staining of STAT5Ptyr will be done using APC-conjugated anti-STAT5Ptyr specific monoclonal antibodies (Upstate Biotech, conjugated using Prozyme APC-labeling kit). This method is well developed in our laboratory and has shown good consistency in current studies. We will analyze the percentage of positive myeloid cells (% STATPtyr+/CD11b+) as well as mean fluorescence (MF) to assess both the number of cells in the myeloid population with activated STAT5 and the relative amount of phosphorylated STAT5 per cells after treatment. After flow analysis, the labeled cells are centrifuged onto slides and stain them for chromatin (DAPI, Molecular Probes). These cells were used for imaging by deconvolution microscopy as previously described and then used 3 dimensional projection rotational analysis to identify subcellular location of activated STAT5.

N#C/C(=C/c1ccc(O)c(O)c1)C(=O)NCc1ccccc1 [AG490]
persistence of phosphorylated STAT5 [1]: does not affect
persistence of STAT5 phosphorylation [2]: not affected
